The numbers were not newly measured in patent publication US20180271827A1, “CANNABINOID COMPOSITIONS AND METHODS OF MAKING” (Pasenture, Inc., priority 2015, published 2018), which cites them from elsewhere.

Entries after “also recorded” stand apart in the source; their conditions may differ. Where two headings read alike, the source gives them in different places.

The conditions of the data set: properties or predicted properties.
Where [1] appears, read: Table C, flavonoid and phytosterol components derived from cannabis plants.
Where [2] appears, read: Table A, representative terpenes.
The mark [3] stands for this setting: Table B, representative cannabinoids.

For the compound `O=c1cc(-c2ccc(O)cc2)oc2cc(O)cc(O)c12` [apigenin], the Properties result under setting [1] is given as “Anxiolytic, Antiinflammatory, Estrogenic”. `CC1=CC[C@@H](C(C)(C)O)CC1` [a-terpineol]: the Properties entry under setting [2] was “Sedative, Antibiotic, AChE inhibitor, Antioxidant,; also recorded: Antimalarial”. As to `COc1cc(-c2cc(=O)c3c(O)c(C/C=C(\C)CCC=C(C)C)c(O)cc3o2)ccc1O` [cannflavin A], the Properties result under setting [1] is “COX inhibitor, LO inhibitor”.

For `CCCc1cc(O)c2c(c1)OC(C)(C)[C@@H]1CCC(C)=C[C@@H]21` [tetrahydrocannabivarin (THCV), tetrahydrocannabivarin], the Properties entry under setting [3] is “Analgesic, Euphoriant”. Regarding `C=C1CC/C=C(/C)CC[C@@H]2[C@@H]1CC2(C)C` [ß-caryophyllene], under setting [2], the Properties entry is “Antiinflammatory, Cytoprotective (gastric mucosa),; also recorded: Antimalarial”. As to `CC1=CCC2CC1C2(C)C` (stereo not drawn) [a-pinene], the Properties entry under setting [2] is “Antiinflammatory, Bronchodilator, Stimulant,; also recorded: Antibiotic, Antineoplastic, AChE inhibitor”. Turning to `CCCCCc1cc(O)c2c(c1)OC(C)(C)c1ccc(C)cc1-2` [Cannabinol (CBN), Cannabinol], the Properties result under setting [3] was “Oxidation, breakdown, product,; also recorded: Sedative, Antibiotic”.

As for `CC12CCC(CC1)C(C)(C)O2` [1,8-cineole (eucalyptol), 1,8-cineole], the Properties result under setting [2] is recorded as “AChE inhibitor, Increases cerebral, blood flow,; also recorded: Stimulant, Antibiotic, Antiviral, Antiinflammatory,; also recorded: Antinociceptive”.

For the compound `C=C(C)[C@H]1CC=C(C)CC1` [d-limonene], the Properties result under setting [2] was “Antidepressant, Antimutagenic”.

As to `C=CC(C)(O)CCC=C(C)C` (stereo not drawn) [linalool], under setting [2], the Properties result was “Sedative, Antidepressant, Anxiolytic, Immune; also recorded: potentiator”. On to `C=C(C)[C@@H]1CCC(C)=C[C@H]1c1c(O)cc(CCCCC)cc1O` [cannabidiol (CBD), cannabidiol, reference compound], for which, under setting [3], the Properties result was “Antispasmodic; also recorded: Anxiolytic, Analgesic, Antipsychotic,; also recorded: Antiinflammatory, Antioxidant,”. In the case of `CC[C@H](CC[C@@H](C)[C@H]1CC[C@H]2[C@@H]3CC=C4C[C@@H](O)CC[C@]4(C)[C@H]3CC[C@]12C)C(C)C` [ß-sitosterol], under setting [1], the Properties result was “Antiinflammatory, 5-a-reductase, inhibitor”.

In the case of `O=c1c(O)c(-c2ccc(O)c(O)c2)oc2cc(O)cc(O)c12` [quercetin], the Properties entry under setting [1] is on record as “Antioxidant, Antimutagenic, Antiviral,; also recorded: Antineoplastic”.

Turning to `CCCCCc1cc(O)c2c(c1)OC(C)(C)[C@@H]1CC=C(C)C[C@@H]21` [?-8-tetrahydrocannabinol (?-8-THC), ?-8-tetrahydrocannabinol], the Properties result under setting [3] is “Resembles ?-9-THC, Less psychoactive,; also recorded: More stable Antiemetic”. For `CCCCCc1cc(O)c2c(c1)OC(C)(CCC=C(C)C)C=C2` (stereo not drawn) [cannabichromene (CBC), cannabichromene], the Properties result under setting [3] is “Antiinflammatory, Antibiotic,; also recorded: Antifungal”. With `CC1=CCC(O)(C(C)C)CC1` (stereo not drawn) [terpineol-4-ol], under setting [2], the Properties entry is “AChE inhibitor, Antibiotic”.

`C=CC(=C)CCC=C(C)C` [ß-myrcene]: the Properties entry under setting [2] is listed as “Analgesic. Antiinflammatory, Antibiotic,; also recorded: Antimutagenic”.

Take `Cc1ccc(C(C)C)cc1` [p-cymene]: the Properties entry under setting [2] is “Antibiotic, Anticandidal, AChE inhibitor”. In the case of `CCCCCc1cc(O)c(C/C=C(\C)CCC=C(C)C)c(O)c1` [cannabigerol (CBG), cannabigerol], under setting [3], the Properties entry is reported as “Antiinflammatory, Antibiotic,; also recorded: Antifungal”. As for `CCCCCc1cc(O)c2c(c1)OC(C)(C)[C@@H]1CCC(C)=C[C@@H]21` [9-tetrahydrocannabinol (THC), 9-tetrahydrocannabinol, reference compound], under setting [3], the Properties entry is “Euphoriant, Analgesic,; also recorded: Antiinflammatory, Antioxidant,; also recorded: Antiemetic”. As to `CC(C)=C1CC[C@@H](C)CC1=O` [pulegone], under setting [2], the Properties entry was “Antipyretic”.
